Measured values as given in ChEMBL document CHEMBL5291721, “A preclinical secondary pharmacology resource illuminates target-adverse drug reaction associations of marketed drugs” (Nat Commun, 2023).

Key:
Vasopressin V1a receptor = Vasopressin V1a receptor (Homo sapiens, UniProt P37288)
Histamine H2 receptor = Histamine H2 receptor (Homo sapiens, UniProt P25021); type: functional, cell-based
Cannabinoid receptor 1 = Cannabinoid receptor 1 (Homo sapiens, UniProt P21554)
Vasopressin V2 receptor = Vasopressin V2 receptor (Homo sapiens, UniProt P30518)
Vasopressin V2 receptor, sequence (P30518 whole entry): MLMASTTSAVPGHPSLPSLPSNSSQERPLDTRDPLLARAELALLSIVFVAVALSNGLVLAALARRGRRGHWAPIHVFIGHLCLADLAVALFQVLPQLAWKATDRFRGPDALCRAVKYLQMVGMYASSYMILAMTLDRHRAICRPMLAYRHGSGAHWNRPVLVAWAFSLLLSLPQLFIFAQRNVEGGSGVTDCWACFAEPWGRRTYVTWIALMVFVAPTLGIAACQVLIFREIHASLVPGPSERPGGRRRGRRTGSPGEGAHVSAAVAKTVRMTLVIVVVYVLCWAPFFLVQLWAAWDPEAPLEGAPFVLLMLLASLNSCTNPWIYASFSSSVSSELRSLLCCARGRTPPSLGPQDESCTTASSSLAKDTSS

[1] = biological target: Voltage-dependent L-type calcium channel subunit alpha-1C (Rattus norvegicus, UniProt P22002); type: functional
Voltage-dependent L-type calcium channel subunit alpha-1C, sequence (P22002 whole entry): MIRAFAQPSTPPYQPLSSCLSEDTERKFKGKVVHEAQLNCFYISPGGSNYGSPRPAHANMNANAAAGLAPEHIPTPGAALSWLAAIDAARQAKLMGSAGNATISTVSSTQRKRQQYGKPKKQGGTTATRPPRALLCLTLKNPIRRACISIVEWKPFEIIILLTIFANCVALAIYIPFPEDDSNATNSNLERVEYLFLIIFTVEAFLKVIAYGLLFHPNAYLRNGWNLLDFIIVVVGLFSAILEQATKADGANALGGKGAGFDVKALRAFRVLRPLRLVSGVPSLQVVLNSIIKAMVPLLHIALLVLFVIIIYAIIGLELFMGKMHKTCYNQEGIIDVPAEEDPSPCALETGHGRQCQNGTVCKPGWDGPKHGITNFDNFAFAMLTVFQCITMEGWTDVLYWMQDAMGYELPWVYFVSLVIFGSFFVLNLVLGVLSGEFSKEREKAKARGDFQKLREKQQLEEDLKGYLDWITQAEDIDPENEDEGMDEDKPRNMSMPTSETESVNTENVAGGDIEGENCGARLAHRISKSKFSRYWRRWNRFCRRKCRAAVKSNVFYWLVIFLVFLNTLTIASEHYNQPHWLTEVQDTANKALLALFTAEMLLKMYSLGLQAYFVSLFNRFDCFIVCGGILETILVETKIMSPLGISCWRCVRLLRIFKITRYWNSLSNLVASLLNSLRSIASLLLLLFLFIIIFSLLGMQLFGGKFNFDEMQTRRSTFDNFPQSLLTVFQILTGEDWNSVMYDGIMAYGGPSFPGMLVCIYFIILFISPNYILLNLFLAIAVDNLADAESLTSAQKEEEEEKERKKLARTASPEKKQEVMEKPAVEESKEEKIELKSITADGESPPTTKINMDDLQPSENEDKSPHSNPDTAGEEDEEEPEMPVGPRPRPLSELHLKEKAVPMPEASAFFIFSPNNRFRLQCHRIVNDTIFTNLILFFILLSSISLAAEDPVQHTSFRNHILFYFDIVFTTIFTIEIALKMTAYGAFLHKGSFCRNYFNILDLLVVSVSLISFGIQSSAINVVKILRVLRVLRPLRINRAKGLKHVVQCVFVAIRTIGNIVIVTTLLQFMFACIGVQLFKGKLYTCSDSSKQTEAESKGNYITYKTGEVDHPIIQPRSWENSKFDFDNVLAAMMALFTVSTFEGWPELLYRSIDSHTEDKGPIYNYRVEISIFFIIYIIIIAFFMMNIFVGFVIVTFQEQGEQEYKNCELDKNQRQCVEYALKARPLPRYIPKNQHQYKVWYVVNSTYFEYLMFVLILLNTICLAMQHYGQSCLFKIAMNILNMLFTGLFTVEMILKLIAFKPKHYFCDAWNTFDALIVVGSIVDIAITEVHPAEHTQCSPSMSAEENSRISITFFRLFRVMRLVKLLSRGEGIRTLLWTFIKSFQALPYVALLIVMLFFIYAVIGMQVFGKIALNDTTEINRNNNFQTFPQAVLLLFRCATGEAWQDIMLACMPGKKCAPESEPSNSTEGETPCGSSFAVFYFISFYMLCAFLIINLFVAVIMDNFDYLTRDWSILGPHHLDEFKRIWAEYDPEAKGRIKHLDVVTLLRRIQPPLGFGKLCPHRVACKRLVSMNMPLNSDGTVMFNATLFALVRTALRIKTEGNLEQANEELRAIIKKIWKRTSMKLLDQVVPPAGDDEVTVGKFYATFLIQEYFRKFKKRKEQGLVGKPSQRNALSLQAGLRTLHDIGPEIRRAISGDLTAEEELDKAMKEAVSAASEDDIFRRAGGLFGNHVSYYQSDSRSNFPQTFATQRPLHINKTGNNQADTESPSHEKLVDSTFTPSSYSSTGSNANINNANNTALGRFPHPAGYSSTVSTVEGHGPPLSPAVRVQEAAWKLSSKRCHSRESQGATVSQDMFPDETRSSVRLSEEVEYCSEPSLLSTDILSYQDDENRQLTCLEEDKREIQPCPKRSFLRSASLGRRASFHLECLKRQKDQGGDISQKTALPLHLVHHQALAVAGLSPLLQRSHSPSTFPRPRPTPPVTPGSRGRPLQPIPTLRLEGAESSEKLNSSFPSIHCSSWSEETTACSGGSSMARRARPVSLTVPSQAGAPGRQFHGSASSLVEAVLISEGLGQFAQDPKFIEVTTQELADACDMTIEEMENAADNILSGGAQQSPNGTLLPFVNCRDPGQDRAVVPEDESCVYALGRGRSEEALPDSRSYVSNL

[2] = biological target: T1, Muscarinic acetylcholine receptor M1 (Homo sapiens, UniProt P11229); type: functional
T1 sequence (P11229 whole entry): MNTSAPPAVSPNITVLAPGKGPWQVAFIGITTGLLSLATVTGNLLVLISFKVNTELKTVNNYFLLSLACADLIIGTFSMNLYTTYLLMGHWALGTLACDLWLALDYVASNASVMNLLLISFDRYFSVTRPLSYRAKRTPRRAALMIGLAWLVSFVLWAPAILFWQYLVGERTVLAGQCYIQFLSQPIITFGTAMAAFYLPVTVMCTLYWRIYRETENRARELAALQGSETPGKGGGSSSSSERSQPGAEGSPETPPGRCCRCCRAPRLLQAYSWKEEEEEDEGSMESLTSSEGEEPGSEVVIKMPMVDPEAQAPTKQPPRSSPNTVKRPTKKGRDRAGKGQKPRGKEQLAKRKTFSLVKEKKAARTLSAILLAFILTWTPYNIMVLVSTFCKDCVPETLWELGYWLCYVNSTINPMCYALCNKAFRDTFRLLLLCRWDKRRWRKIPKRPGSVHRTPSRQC

Adenosine receptor A3 = biological target: T2, Adenosine receptor A3 (Homo sapiens, UniProt P0DMS8)
T2 sequence (P0DMS8 whole entry): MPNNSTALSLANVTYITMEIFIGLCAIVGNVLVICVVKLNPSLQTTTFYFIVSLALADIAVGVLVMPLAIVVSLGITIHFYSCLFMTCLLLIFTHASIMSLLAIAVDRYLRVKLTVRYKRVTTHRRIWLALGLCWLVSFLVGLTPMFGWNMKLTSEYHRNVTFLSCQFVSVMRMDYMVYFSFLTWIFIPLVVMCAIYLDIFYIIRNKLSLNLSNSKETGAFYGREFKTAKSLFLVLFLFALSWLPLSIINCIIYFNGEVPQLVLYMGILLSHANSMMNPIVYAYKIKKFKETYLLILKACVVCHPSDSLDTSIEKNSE

D(1A) dopamine receptor = D(1A) dopamine receptor (Homo sapiens, UniProt P21728)
D(1A) dopamine receptor, sequence (P21728 whole entry): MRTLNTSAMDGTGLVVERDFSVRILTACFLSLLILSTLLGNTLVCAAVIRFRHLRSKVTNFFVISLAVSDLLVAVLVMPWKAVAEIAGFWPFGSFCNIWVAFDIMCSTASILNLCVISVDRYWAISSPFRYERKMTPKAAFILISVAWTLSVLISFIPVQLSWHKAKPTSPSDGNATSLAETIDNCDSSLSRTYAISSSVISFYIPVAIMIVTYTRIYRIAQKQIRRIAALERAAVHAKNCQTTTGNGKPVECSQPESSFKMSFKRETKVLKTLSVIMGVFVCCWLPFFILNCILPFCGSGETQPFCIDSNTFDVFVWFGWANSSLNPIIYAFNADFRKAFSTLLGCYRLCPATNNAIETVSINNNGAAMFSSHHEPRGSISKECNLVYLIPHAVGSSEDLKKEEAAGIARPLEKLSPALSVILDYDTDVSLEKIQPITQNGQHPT

[3] = biological target: T3, Alpha-1A adrenergic receptor (Homo sapiens, UniProt P35348); type: functional, cell-based
T3 sequence (P35348 whole entry): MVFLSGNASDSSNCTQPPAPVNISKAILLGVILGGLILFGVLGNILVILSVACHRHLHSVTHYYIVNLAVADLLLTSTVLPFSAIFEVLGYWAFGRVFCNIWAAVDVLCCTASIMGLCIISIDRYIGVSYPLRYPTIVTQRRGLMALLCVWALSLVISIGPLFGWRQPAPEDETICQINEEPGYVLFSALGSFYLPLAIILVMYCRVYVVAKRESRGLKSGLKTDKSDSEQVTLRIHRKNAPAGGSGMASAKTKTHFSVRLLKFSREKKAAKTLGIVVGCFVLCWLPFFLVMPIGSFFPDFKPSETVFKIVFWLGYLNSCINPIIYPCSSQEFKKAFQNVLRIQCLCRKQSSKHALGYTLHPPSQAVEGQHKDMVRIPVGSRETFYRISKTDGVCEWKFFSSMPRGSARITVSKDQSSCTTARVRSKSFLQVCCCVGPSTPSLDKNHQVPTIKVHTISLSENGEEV

[4] = biological target: T4, Alpha-2A adrenergic receptor (Homo sapiens, UniProt P08913)
T4 sequence (P08913 whole entry): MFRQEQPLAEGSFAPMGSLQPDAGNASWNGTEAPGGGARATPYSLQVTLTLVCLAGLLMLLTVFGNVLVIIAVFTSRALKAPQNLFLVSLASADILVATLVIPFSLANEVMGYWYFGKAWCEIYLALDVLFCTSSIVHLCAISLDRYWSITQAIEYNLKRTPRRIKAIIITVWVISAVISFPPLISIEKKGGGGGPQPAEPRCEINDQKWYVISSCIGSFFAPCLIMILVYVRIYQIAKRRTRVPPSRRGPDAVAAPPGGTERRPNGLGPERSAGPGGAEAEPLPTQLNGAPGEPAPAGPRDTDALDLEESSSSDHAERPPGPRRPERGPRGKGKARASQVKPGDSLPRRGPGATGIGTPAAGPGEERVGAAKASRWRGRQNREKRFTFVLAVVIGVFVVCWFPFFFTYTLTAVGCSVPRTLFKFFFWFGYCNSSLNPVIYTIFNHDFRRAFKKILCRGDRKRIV

[5] = biological target: T5, Prostaglandin G/H synthase 1 (Homo sapiens, UniProt P23219); type: functional
T5 sequence (P23219 whole entry): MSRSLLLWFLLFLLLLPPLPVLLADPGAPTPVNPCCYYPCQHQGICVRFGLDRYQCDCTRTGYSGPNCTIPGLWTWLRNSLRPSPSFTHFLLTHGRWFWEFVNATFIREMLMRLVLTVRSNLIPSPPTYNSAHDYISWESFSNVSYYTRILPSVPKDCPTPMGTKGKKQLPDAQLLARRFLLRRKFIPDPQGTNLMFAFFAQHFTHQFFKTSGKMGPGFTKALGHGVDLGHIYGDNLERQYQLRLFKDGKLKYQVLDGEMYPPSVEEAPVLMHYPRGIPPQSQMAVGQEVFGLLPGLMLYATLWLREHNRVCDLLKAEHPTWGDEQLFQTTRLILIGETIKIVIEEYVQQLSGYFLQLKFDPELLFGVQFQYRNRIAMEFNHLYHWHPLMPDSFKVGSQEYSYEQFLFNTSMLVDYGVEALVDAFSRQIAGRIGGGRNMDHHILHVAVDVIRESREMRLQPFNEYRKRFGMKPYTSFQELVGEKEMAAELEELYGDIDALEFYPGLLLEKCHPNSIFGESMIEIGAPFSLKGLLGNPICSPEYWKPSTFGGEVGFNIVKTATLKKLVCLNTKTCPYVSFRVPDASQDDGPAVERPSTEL

[6] = biological target: T5, Prostaglandin G/H synthase 1; type: functional; remark: listed apart in the source
Also: assay procedure not described here.

Vasopressin V1a receptor, sequence (P37288 whole entry): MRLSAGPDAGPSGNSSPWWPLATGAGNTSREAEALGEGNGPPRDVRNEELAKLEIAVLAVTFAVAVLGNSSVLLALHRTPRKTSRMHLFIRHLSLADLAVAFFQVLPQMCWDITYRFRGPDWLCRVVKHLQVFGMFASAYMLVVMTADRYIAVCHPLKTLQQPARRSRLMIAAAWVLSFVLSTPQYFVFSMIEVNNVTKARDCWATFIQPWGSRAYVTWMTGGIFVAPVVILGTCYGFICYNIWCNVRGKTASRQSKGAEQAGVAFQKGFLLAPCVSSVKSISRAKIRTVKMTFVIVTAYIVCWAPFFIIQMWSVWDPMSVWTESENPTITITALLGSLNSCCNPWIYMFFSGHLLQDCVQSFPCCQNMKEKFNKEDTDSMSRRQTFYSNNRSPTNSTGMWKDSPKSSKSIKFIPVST
Cannabinoid receptor 1, sequence (P21554 whole entry): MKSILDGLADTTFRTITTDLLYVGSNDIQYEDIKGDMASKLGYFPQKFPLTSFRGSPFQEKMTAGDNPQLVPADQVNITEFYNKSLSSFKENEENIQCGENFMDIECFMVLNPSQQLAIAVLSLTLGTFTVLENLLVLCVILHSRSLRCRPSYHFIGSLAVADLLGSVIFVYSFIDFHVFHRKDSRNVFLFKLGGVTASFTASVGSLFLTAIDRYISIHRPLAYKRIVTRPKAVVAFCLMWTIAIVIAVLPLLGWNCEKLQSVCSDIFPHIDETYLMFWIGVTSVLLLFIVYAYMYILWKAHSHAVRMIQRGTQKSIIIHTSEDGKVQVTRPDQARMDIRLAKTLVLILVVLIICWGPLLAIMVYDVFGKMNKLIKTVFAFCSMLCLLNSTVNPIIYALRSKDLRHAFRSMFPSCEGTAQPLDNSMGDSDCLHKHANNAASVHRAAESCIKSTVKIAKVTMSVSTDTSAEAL
Histamine H2 receptor, sequence (P25021 whole entry): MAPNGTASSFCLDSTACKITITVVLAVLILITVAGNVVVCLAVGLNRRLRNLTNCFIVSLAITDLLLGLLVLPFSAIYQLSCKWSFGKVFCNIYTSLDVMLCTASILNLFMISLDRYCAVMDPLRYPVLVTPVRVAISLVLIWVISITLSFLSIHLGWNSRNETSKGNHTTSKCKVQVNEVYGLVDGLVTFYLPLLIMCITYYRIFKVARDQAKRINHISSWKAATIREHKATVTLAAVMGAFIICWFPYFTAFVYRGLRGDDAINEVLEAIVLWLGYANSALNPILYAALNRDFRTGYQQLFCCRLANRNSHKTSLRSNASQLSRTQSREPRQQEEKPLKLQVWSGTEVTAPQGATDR

| SMILES | AC50 (Vasopressin V1a receptor) [µM] | AC50 (Histamine H2 receptor) [µM] | AC50 (Cannabinoid receptor 1) [µM] | AC50 (Vasopressin V2 receptor) [µM] | AC50 [1] [µM] | AC50 [2] [µM] | AC50 (Adenosine receptor A3) [µM] | AC50 (D(1A) dopamine receptor) [µM] | AC50 [3] [µM] | AC50 [4] [µM] | AC50 [5] [µM] | AC50 [6] [µM] |
| --- | --- | --- | --- | --- | --- | --- | --- | --- | --- | --- | --- | --- |
| CO/N=C(\C(=O)N[C@@H]1C(=O)N2C(C(=O)[O-])=C(C[N+]3(C)CCCC3)CS[C@H]12)c1csc(N)n1 | > 300 | > 30 | > 30 | > 30 | > 30 | > 300 |  |  |  |  |  |  |
| COC(=O)N[C@H](C(=O)N1CCC[C@H]1c1nc(-c2ccc(-c3ccc(-c4c[nH]c([C@@H]5CCCN5C(=O)[C@@H](NC(=O)OC)C(C)C)n4)cc3)cc2)c[nH]1)C(C)C | > 30 | > 30 | > 30 | > 30 | > 30 | > 30 |  |  |  |  |  |  |
| CN1CCCC(n2nc(Cc3ccc(Cl)cc3)c3ccccc3c2=O)CC1 (centres undefined) [AZELASTINE] | > 30 |  |  |  |  |  |  |  |  |  |  |  |
| C(=N\NC1=NCCN1)/c1c2ccccc2c(/C=N/NC2=NCCN2)c2ccccc12 [BISANTRENE] |  |  |  |  |  |  | 2.01 | 5.24 | 1.47 | 11.6 | > 30 | > 30 |
| CC(=O)OCC(=O)[C@@]1(O)CC[C@H]2[C@@H]3CCC4=CC(=O)CC[C@]4(C)[C@H]3C(=O)C[C@@]21C [CORTISONE ACETATE] |  | > 30 |  |  |  |  |  |  |  |  |  |  |
| CCC(=O)O[C@H]1[C@H](O[C@@H]2[C@@H](C)[C@H](O[C@H]3C[C@@](C)(OC)[C@@H](O)[C@H](C)O3)[C@@H](C)C(=O)O[C@H](CC)[C@@](C)(O)[C@H](O)[C@@H](C)C(=O)[C@H](C)C[C@@]2(C)O)O[C@H](C)C[C@@H]1N(C)C [ERYTHROMYCIN PROPIONATE] |  |  |  |  |  |  |  | > 30 |  | > 30 | > 30 | > 10 |
| C[C@@H]1O[C@@H]1P(=O)(O)O [FOSFOMYCIN] | > 10 | > 10 | > 10 | > 10 | > 10 | > 10 |  |  |  |  |  |  |
| COc1ccc2c(c1)C(=O)N(CCc1ccc(S(=O)(=O)NC(=O)NC3CCCCC3)cc1)C(=O)C2(C)C [GLIQUIDONE] | > 30 | > 30 | > 30 | > 30 | > 30 | > 30 |  |  |  |  |  |  |
| CC(C)Cc1ccc(CC(=O)O)cc1 [IBUFENAC] | > 30 |  |  |  |  | > 30 |  |  |  |  |  |  |
| NC[C@H]1O[C@H](O[C@H]2[C@H](O)[C@@H](O[C@H]3O[C@H](CO)[C@@H](O)[C@H](N)[C@H]3O)[C@H](N)C[C@@H]2N)[C@H](O)[C@@H](O)[C@@H]1O [KANAMYCIN] |  | > 30 | > 10 | > 10 | > 10 |  |  |  |  |  |  |  |

More lines, main results first:

| AC50 (Vasopressin V1a receptor) [µM] | AC50 (Histamine H2 receptor) [µM] | AC50 (Cannabinoid receptor 1) [µM] | AC50 (Vasopressin V2 receptor) [µM] | AC50 [1] [µM] | AC50 [2] [µM] | SMILES | AC50 (Adenosine receptor A3) [µM] | AC50 (D(1A) dopamine receptor) [µM] | AC50 [3] [µM] | AC50 [4] [µM] | AC50 [5] [µM] | AC50 [6] [µM] |
| --- | --- | --- | --- | --- | --- | --- | --- | --- | --- | --- | --- | --- |
| > 30 |  |  |  |  | > 30 | CC(=O)c1ccc2c(c1)N(CCCN1CCN(CCO)CC1)c1ccccc1S2 [ACETOPHENAZINE] |  |  |  |  |  |  |
| > 30 | > 10 | > 10 | > 30 | > 10 | > 10 | COC(=O)N[C@H](C(=O)N[C@@H](Cc1ccccc1)[C@@H](O)CN(Cc1ccc(-c2ccccn2)cc1)NC(=O)[C@@H](NC(=O)OC)C(C)(C)C)C(C)(C)C [ATAZANAVIR] |  |  |  |  |  |  |
| > 30 | > 30 |  | > 30 |  | > 30 | N[C@@H](C(=O)N[C@@H]1C(=O)N2C(C(=O)O)=C(Cl)CS[C@H]12)c1ccccc1 [CEFACLOR ANHYDROUS] |  |  |  |  |  |  |
|  | > 30 | > 10 | > 10 | > 10 |  | O=C(O)c1cc(-c2ccc(F)cc2F)ccc1O [DIFLUNISAL] |  |  |  |  |  |  |
| > 10 | > 30 | > 10 | > 10 | > 10 | > 10 | CN1C(=O)CC(C)(c2ccccc2)C1=O (centres undefined) [METHSUXIMIDE] |  |  |  |  |  |  |
